Assay [1] has as its target T1, Amyloid-beta precursor protein (Homo sapiens, UniProt P05067). In words: Inhibition of amyloid beta (1 to 42) (unknown origin) self-aggregation at 20 uM after 24 hrs by thioflavin-T fluorescence assay relative to control.
Assay [2] has as its target T1, Amyloid-beta precursor protein. In words: Inhibition of amyloid beta (1 to 42) (unknown origin) self-aggregation after 24 hrs by thioflavin-T fluorescence assay.
The test system of assay [3] is SH-SY5Y. In words: Neuroprotective activity against H2O2-induced oxidative stress in human SH-SY5Y cells assessed as cell viability at 12.5 uM pre-incubated for 1 hr followed by H2O2 addition and measured after 4 hrs by MTT assay relative to control. It counts as functional. As to conditions: read-out: Activity.
Assay [4] relates to SH-SY5Y. In words: Neuroprotective activity against H2O2-induced oxidative stress in human SH-SY5Y cells assessed as cell viability at 25 uM pre-incubated for 1 hr followed by H2O2 addition and measured after 4 hrs by MTT assay relative to control. As to conditions: read-out: Activity. It counts as functional.
Assay [5] relates to SH-SY5Y. In words: Neuroprotective activity against H2O2-induced oxidative stress in human SH-SY5Y cells assessed as cell viability at 50 uM pre-incubated for 1 hr followed by H2O2 addition and measured after 4 hrs by MTT assay relative to control. It counts as functional. As to conditions: read-out: Activity.

T1 sequence (P05067 whole entry): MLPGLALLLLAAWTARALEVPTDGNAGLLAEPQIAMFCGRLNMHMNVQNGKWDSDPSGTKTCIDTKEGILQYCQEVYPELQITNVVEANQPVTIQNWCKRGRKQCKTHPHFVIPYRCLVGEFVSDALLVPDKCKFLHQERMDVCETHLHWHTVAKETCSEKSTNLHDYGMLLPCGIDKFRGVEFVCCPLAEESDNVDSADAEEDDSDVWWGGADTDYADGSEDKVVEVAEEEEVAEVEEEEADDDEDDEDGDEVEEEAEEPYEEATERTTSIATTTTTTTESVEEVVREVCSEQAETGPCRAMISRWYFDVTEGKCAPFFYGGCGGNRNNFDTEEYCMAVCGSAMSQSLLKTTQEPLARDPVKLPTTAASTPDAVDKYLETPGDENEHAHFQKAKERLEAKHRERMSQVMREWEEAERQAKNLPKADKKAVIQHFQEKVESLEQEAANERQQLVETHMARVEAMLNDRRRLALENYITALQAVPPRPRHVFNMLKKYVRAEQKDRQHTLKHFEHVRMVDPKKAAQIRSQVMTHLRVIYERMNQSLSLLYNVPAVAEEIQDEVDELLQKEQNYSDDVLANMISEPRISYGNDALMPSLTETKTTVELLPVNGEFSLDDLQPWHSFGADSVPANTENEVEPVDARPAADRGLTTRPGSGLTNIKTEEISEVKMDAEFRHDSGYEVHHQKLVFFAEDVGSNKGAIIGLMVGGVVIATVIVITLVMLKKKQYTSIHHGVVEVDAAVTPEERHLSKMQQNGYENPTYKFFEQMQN

As for `CC(C)n1cc(CNC(=O)[C@@H](C)CC[C@H]2O[C@H]3C[C@H]4[C@@H]5CC[C@@H]6C[C@@H](OCc7ccccc7)CC[C@]6(C)[C@H]5CC[C@]4(C)[C@H]3[C@@H]2C)nn1`, the inhibition in assay [1] was found to be 52.6%.
The molecule `C[C@H]1[C@H]2[C@H](C[C@H]3[C@@H]4CC[C@@H]5C[C@@H](OCc6ccccc6)CC[C@]5(C)[C@H]4CC[C@]23C)O[C@@H]1CC[C@H](C)C(=O)NCc1cn(Cc2ccccc2)nn1` showed an inhibition in assay [1] of 64.2%.
As to `CCCn1cc(CNC(=O)[C@@H](C)CC[C@H]2O[C@H]3C[C@H]4[C@@H]5CC[C@@H]6C[C@@H](OCc7ccccc7)CC[C@]6(C)[C@H]5CC[C@]4(C)[C@H]3[C@@H]2C)nn1`, the inhibition in assay [1] turned out to be 21.8%.
Take `C[C@H]1[C@H]2[C@H](C[C@H]3[C@@H]4CC[C@@H]5C[C@@H](OCc6ccccc6)CC[C@]5(C)[C@H]4CC[C@]23C)O[C@@H]1CC[C@H](C)C(=O)NCc1cn(C)nn1`: the inhibition in assay [1] was 8.34%.
The molecule `Cc1ccc(Cn2cc(CNC(=O)[C@@H](C)CC[C@H]3O[C@H]4C[C@H]5[C@@H]6CC[C@@H]7C[C@@H](OCc8ccccc8)CC[C@]7(C)[C@H]6CC[C@]5(C)[C@H]4[C@@H]3C)nn2)cc1` came in with an inhibition in assay [1] of 71.2%.
Same read-out and setting: the figure for `COc1cccc(Cn2cc(CNC(=O)[C@@H](C)CC[C@H]3O[C@H]4C[C@H]5[C@@H]6CC[C@@H]7C[C@@H](OCc8ccccc8)CC[C@]7(C)[C@H]6CC[C@]5(C)[C@H]4[C@@H]3C)nn2)c1` is 64.8%.
Still for that read-out and setting: the figure for `CCn1cc(CNC(=O)[C@@H](C)CC[C@H]2O[C@H]3C[C@H]4[C@@H]5CC[C@@H]6C[C@@H](OCc7ccccc7)CC[C@]6(C)[C@H]5CC[C@]4(C)[C@H]3[C@@H]2C)nn1` is 11.8%; for `C[C@H]1[C@H]2[C@H](C[C@H]3[C@@H]4CC[C@@H]5C[C@@H](OCc6ccccc6)CC[C@]5(C)[C@H]4CC[C@]23C)O[C@@H]1CC[C@H](C)C(=O)NCc1cn(Cc2ccc(Br)cc2)nn1` it is 55.8%; for `C[C@H]1[C@H]2[C@H](C[C@H]3[C@@H]4CC[C@@H]5C[C@@H](OCc6ccccc6)CC[C@]5(C)[C@H]4CC[C@]23C)O[C@@H]1CC[C@H](C)C(=O)NCc1cn(Cc2ccncc2)nn1` it is 20.8%.
In assay [1], `C[C@H]1CC[C@@]2(OC1)O[C@H]1C[C@H]3[C@@H]4CC[C@@H]5C[C@@H](O)CC[C@]5(C)[C@H]4CC[C@]3(C)[C@H]1[C@@H]2C` [SARSASAPOGENIN] yielded an inhibition of 16.4%. Moreover, in assay [2], the IC50 is over 100 µM. Further, in the assay with SH-SY5Y [3], the viability at 12.5 µM is 68.2%. The viability at 25 µM with SH-SY5Y [4] stood at 71%. Further, the viability at 50 µM in the assay with SH-SY5Y [5] was 71.3%.
On to `COc1cc(Cn2cc(CNC(=O)[C@@H](C)CC[C@H]3O[C@H]4C[C@H]5[C@@H]6CC[C@@H]7C[C@@H](OCc8ccccc8)CC[C@]7(C)[C@H]6CC[C@]5(C)[C@H]4[C@@H]3C)nn2)cc(OC)c1`, for which the inhibition in assay [1] turned out to be 31.5%.
On the same count and under the same terms, the figure for `C[C@H]1[C@H]2[C@H](C[C@H]3[C@@H]4CC[C@@H]5C[C@@H](OCc6ccccc6)CC[C@]5(C)[C@H]4CC[C@]23C)O[C@@H]1CC[C@H](C)C(=O)NCc1cn(Cc2ccc([N+](=O)[O-])cc2)nn1` is 70.7%; for `C[C@H]1[C@H]2[C@H](C[C@H]3[C@@H]4CC[C@@H]5C[C@@H](OCc6ccccc6)CC[C@]5(C)[C@H]4CC[C@]23C)O[C@@H]1CC[C@H](C)C(=O)NCc1cn(Cc2ccc(Cl)cc2)nn1` it is 70.5%; for `C[C@H]1[C@H]2[C@H](C[C@H]3[C@@H]4CC[C@@H]5C[C@@H](OCc6ccccc6)CC[C@]5(C)[C@H]4CC[C@]23C)O[C@@H]1CC[C@H](C)C(=O)NCc1cn(Cc2ccc(F)cc2)nn1` it is 37.5%.
For the molecule `Cc1c(C)c2c(c(C)c1O)CCC(C)(C(=O)O)O2` (stereo unspecified) [TROLOX], the viability at 12.5 µM in the assay on SH-SY5Y [3] was 78.4%. The viability at 25 µM with SH-SY5Y [4] amounted to 80.1%. For the same molecule, the viability at 50 µM in the assay on SH-SY5Y [5] amounted to 78.4%.

For the origin of these results see ChEMBL document CHEMBL4152201, “Novel sarsasapogenin-triazolyl hybrids as potential anti-Alzheimer's agents: Design, synthesis and biological evaluation” (Eur J Med Chem, 2018).
